This note sets out measurements from patent US8334288B2, “4-phenoxymethylpiperidines as modulators of GPR119 activity” (IRM LLC, priority 2008, dated 2012).

For this assay, the target named is T1, human GPR119 (Homo sapiens, UniProt Q8TDV5).
T1 construct: expressed in transfected cells; host or cells: Flp-In-CHO cells (Invitrogen, Cat. #R758-07), stably transfected with pcDNA5/FRT-human GPR119 plus pOG44
T1 sequence (Q8TDV5 1-335): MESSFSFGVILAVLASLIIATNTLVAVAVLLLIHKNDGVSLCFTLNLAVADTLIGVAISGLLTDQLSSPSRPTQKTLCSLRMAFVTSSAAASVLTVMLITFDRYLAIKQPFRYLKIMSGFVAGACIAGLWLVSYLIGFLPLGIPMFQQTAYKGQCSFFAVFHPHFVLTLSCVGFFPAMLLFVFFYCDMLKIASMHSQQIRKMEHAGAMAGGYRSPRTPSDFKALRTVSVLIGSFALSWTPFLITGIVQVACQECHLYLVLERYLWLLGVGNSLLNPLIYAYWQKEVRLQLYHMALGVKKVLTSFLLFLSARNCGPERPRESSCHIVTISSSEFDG
Put plainly: Cyclic AMP assay in stable cell line (HTRF, Flp-In-CHO-hGPR119 cells). It counts as cell-based. Conditions: increase in intracellular cAMP, 30 minutes at 37° C., 1 mM IBMX. Here is the method: Flp-In-CHO cells (Invitrogen, Cat. #R758-07) are maintained in Ham's F12 medium supplemented with 10% fetal bovine serum, 1% antibiotic mixture and 2 mM L-glutamine. The cells are transfected with a DNA mixture containing human GPR119 in pcDNA5/FRT vector and the pOG44 vector (1:9) using Fugene6 (Roche), according to the manufacturer's instruction. After 48 h, the medium is changed to medium supplemented with 400 μg/ml hygromycin B to initiate the selection of stably transfected cells.
To test the activity of compounds of the invention, Flp-In-CHO-hGPR119 cells are harvested and resuspended in DMEM plus 3% lipid-depleted fetal bovine serum. Forth μl of cells are plated in 384 well plates at a density of 15,000 cells/well. IBMX (3-isobutyl-1-methyl-xanthine) is added to the cells to a final concentration of 1 mM, followed by the addition of 500 nl of the compound to be tested. The cells are incubated at 37° C. for 30 minutes. Equal volume (20 μl) of the HTRF reagents, anti-cAMP-Cryptate and cAMP-XL665, are added to the cells. The plates are incubated at rt for 1 h and read on a HTRF reader according to the manufacturer's instruction.
(In general: Time-resolved FRET reads energy transfer from a long-lived donor to a nearby acceptor.)
A word on the EC50: it is the concentration giving half of the maximal effect. High values mean a need for much substance, low ones an effect from little substance. `CCc1cnc(N2CCC(COc3c(F)cc(-c4cnc(C(N)=O)nc4)cc3F)CC2)nc1` [Example A35] returned an EC50 of 9 nM. Consider `CCc1cnc(N2CCC(COc3c(F)cc(-c4ccc(-c5nnn(C)n5)cc4)cc3F)CC2)nc1` [Example C1, 2-(4-((3,5-difluoro-4′-(2-methyl-2H-tetrazol-5-yl)biphenyl-4-yloxy)methyl)piperidin-1-yl)-5-ethylpyrimidine], for which the response was half-maximal at 5 nM (EC50).

The compound `CCc1cnc(N2CCC(COc3c(F)cc(-c4ccc(CN(C)C(C)=O)cc4)cc3F)CC2)nc1` [Example L1, N-((4′-((1-(5-ethylpyrimidin-2-yl)piperidin-4-yl)methoxy)-3′,5′-difluorobiphenyl-4-yl)methyl)-N-methylacetamide] displayed an EC50 of 62 nM. On to `CCc1cnc(N2CCC(COc3c(F)cc(-c4ccc(CO)cc4)cc3F)CC2)nc1` [Example A14], for which the EC50 worked out at 5 nM. The same measure for `CCc1cnc(N2CCC(COc3c(F)cc(-c4ccc(S(=O)(=O)CC5(C)COC5)cc4)cc3F)CC2)nc1` [Example A3, 2-(4-((3,5-difluoro-4′-((3-methyloxetan-3-yl)methylsulfonyl)biphenyl-4-yloxy)methyl)piperidin-1-yl)-5-ethylpyrimidine]: 0.7 nM. The same measure for `CC1(OC(=O)N2CCC(COc3c(F)cc(-c4cnc(C(=O)N5CCC(O)CC5)nc4)cc3F)CC2)CC1` [Example J1]: 13 nM; for `CC(C)(C)OC(=O)N1CCC(COc2c(F)cc(-c3cc[n+]([O-])cc3)cc2F)CC1` [Example E1, 4-(4-((1-(tert-butoxycarbonyl)piperidin-4-yl)methoxy)-3,5-difluorophenyl)pyridine 1-oxide]: 38 nM; for `CCc1cnc(N2CCC(COc3c(F)cc(-c4cccc(Cc5nnn(C)n5)c4)cc3F)CC2)nc1` [Example C5]: 22 nM. Under `CCc1cnc(N2CCC(COc3c(F)cc(-c4ccc(Cn5ncnn5)cc4)cc3F)CC2)nc1` [Example H5] stands 28 nM.

Compound `CC1(OC(=O)N2CCC(COc3c(F)cc(-c4cnc(C(=O)NCCCO)nc4)cc3F)CC2)CC1` [Example J15] yielded an EC50 of 45 nM. The same measure for `CCc1cnc(N2CCC(COc3c(F)cc(-c4ccc(Cn5ccnc5)cc4)cc3F)CC2)nc1` [Example H4]: 92 nM; for `CCCS(=O)(=O)c1ccc(-c2cc(F)c(OCC3CCN(C(=O)OC4(C)CC4)CC3)c(F)c2)c(C)n1` [Example F4, 1-methylcyclopropyl 4-((2,6-difluoro-4-(2-methyl-6-(propylsulfonyl)pyridin-3-yl)phenoxy)methyl)piperidine-1-carboxylate]: 0.3 nM; for `CN1CCN(C(=O)c2ncc(-c3cc(F)c(OCC4CCN(C(=O)OC5(C)CC5)CC4)c(F)c3)cn2)CC1` [Example J12]: 14 nM.

Compound `CC1(OC(=O)N2CCC(COc3c(F)cc(-c4ccc(S(C)(=O)=O)cc4)cc3F)CC2)CC1` [Example D1, 1-methylcyclopropyl 4-((3,5-difluoro-4′-(methylsulfonyl)biphenyl-4-yloxy)methyl)piperidine-1-carboxylate] had an EC50 of 1 nM. Turning to `CCc1cnc(N2CCC(COc3c(F)cc(-c4ccc(-c5cnco5)cc4)cc3F)CC2)nc1` [Example G1, 5-(4′-((1-(5-ethylpyrimidin-2-yl)piperidin-4-yl)methoxy)-3′,5′-difluorobiphenyl-4-yl)oxazole], the midpoint of the response, the EC50, lay at 3 nM. The same measure for `CCc1cnc(N2CCC(COc3c(F)cc(-c4cnc(N5CCCC5)nc4)cc3F)CC2)nc1` [Example A16]: 171 nM; for `CCCS(=O)(=O)c1ccc(-c2cc(F)c(OCC3CCN(C(=O)OC(C)CC)CC3)c(F)c2)c(C)n1` (stereo not shown) [Example F6, sec-butyl 4-((2,6-difluoro-4-(2-methyl-6-(propylsulfonyl)pyridin-3-yl)phenoxy)methyl)piperidine-1-carboxylate]: 1 nM. Consider `CCc1cnc(N2CCC(COc3c(F)cc(-c4cnn(CCN(C)C)c4)cc3F)CC2)nc1` [Example K1, 2-(4-(4-((1-(5-ethylpyrimidin-2-yl)piperidin-4-yl)methoxy)-3,5-difluorophenyl)-1H-pyrazol-1-yl)-N,N-dimethylethanamine], for which the EC50 stood at 2070 nM. Consider `COc1cc(-c2cc(F)c(OCC3CCN(C(=O)OC(C)(C)C)CC3)c(F)c2)ccn1` [Example A20], for which the EC50 is 46 nM.

Compound `CCc1cnc(N2CCC(COc3c(F)cc(-c4ccc(S(C)(=O)=O)cn4)cc3F)CC2)nc1` [Example A1, 2-(4-((2,6-difluoro-4-(5-(methylsulfonyl)pyridin-2-yl)phenoxy)methyl)piperidin-1-yl)-5-ethylpyrimidine] came in with a concentration giving a half-maximal response (EC50) of 1 nM. The same measure for `CC1(OC(=O)N2CCC(COc3c(F)cc(-c4cnc5[nH]c(=O)oc5c4)cc3F)CC2)CC1` [Example J11]: 263 nM; for `CC1(OC(=O)N2CCC(COc3c(F)cc(-c4cnc(C(=O)N5CC[C@H](O)C5)nc4)cc3F)CC2)CC1` [Example J19]: 47 nM. Under `CCN(CCO)C(=O)c1ncc(-c2cc(F)c(OCC3CCN(C(=O)OC4(C)CC4)CC3)c(F)c2)cn1` [Example J5] stands 19 nM; under `CCOC(=O)CCNC(=O)c1ncc(-c2cc(F)c(OCC3CCN(C(=O)OC4(C)CC4)CC3)c(F)c2)cn1` [Example J8], 10 nM; under `CCc1cnc(N2CCC(COc3c(F)cc(-c4ccc(S(C)(=O)=O)cc4)cc3F)CC2)nc1` [Example A6], 0.7 nM.

`CCc1cnc(N2CCC(COc3c(F)cc(-c4ccc(C(C)(C)O)nc4)cc3F)CC2)nc1` [Example A38]: the EC50 was found to be 29 nM. In the case of `CCc1cnc(N2CCC(COc3c(F)cc(-c4ccc(-n5cncn5)nc4C)cc3F)CC2)nc1` [Example F1, 2-(4-((2,6-difluoro-4-(2-methyl-6-(1H-1,2,4-triazol-1-yl)pyridin-3-yl)phenoxy)methyl)piperidin-1-yl)-5-ethylpyrimidine], it took 0.5 nM to reach a half-maximal effect (EC50). For `CCc1cnc(N2CCC(COc3c(F)cc(-c4ccc(S(C)(=O)=O)nc4)cc3F)CC2)nc1` [Example A22], the EC50 was determined as 2 nM. Consider `CC1(OC(=O)N2CCC(COc3c(F)cc(-c4ccc(C5(N)CC5)nc4)cc3F)CC2)CC1` [Example A39], for which the midpoint of the response, the EC50, lay at 37 nM.

For `CCc1cnc(N2CCC(COc3c(F)cc(-c4cnn(C)c4)cc3F)CC2)nc1` [Example A24], the EC50 was 258 nM. The compound `CCc1cnc(N2CCC(COc3c(F)cc(-c4ccc(-c5nn[nH]n5)nc4)cc3F)CC2)nc1` [Example B5] gave a concentration giving a half-maximal response (EC50) of 79 nM.
